Measured values from paper PMC7936271, “Discovery and characterization of bromodomain 2–specific inhibitors of BRDT” (Proceedings of the National Academy of Sciences of the …, 2021).

SMILES	IC50 (BRDT-BD2) [µM]	IC50 (BRDT-BD1) [µM]
CC(=O)Nc1cc(NC(=O)c2ccc3c(c2)c(-c2ccc(N)nc2)nn3C(C)C)ccc1C	0.253	> 10
CC(=O)Nc1cc(NC(=O)c2ccc3c(c2)c(-c2cnc(N)cc2C)nn3C)ccc1C	0.126	
CCn1nc(-c2ccc(N)nc2)c2cc(C(=O)Nc3ccc(C)c(NC(C)=O)c3)ccc21	0.079	> 10
CNC(=O)c1ccc(C(=O)Nc2cc(NC(=O)c3ccc4c(c3)c(-c3ccc(C)cc3C)nn4C)ccc2OC)cc1	0.026	
CNC(=O)c1ccc(C(=O)Nc2cc(NC(=O)c3ccc4c(c3)c(-c3ccc(N)cc3)nn4C)ccc2OC)cc1	0.015	> 10
CNC(=O)c1ccc(C(=O)Nc2cc(NC(=O)c3ccc4c(c3)c(-c3ccc(N)cc3C)nn4C)ccc2OC)cc1	0.012	> 10
CNC(=O)c1ccc(C(=O)Nc2cc(NC(=O)c3ccc4c(c3)c(-c3ccc(OC)cc3)nn4C)ccc2C)cc1	0.521	> 10
CNC(=O)c1ccc(C(=O)Nc2cc(NC(=O)c3ccc4c(c3)c(-c3ccccc3C)nn4C)ccc2OC)cc1	0.061	6.3
COc1ccc(NC(=O)c2ccc3c(c2)c(-c2cc4ccccc4n2C)nn3C)c(C)c1	0.183	
COc1ccc(NC(=O)c2ccc3c(c2)c(-c2cc4ccccc4n2C)nn3C)c(Cl)c1	> 1.25	
COc1ccc(NC(=O)c2ccc3c(c2)c(-c2cc4ccccc4n2C)nn3C)c(F)c1	0.203	
COc1ccc(NC(=O)c2ccc3c(c2)c(-c2cc4ccccc4n2C)nn3C)c(OC)c1	0.926	
COc1ccc(NC(=O)c2ccc3c(c2)c(-c2cc4ccccc4n2C)nn3C)cc1	0.121	
COc1ccc(NC(=O)c2ccc3c(c2)c(-c2cc4ccccc4n2C)nn3C)cc1C	0.111	
COc1ccc(NC(=O)c2ccc3c(c2)c(-c2cc4ccccc4n2C)nn3C)cc1Cl	0.164	
COc1ccc(NC(=O)c2ccc3c(c2)c(-c2cc4ccccc4n2C)nn3C)cc1F	0.119	
